The source made the active and inactive calls.

Data on 2 molecules can be found in ChEMBL document CHEMBL1201862, “PubChem BioAssay data set” (2004).

Assay [1] addresses T1, G-protein coupled receptor 35 (Homo sapiens, UniProt Q9HC97). Briefly: GPR35 antagonists blocking zaprinast-driven arrestin recruitment, primary screen, imaging, U2OS, beta-arrestin-GFP, zaprinast agonist (AID 2058).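 Note: antagonist potency meaning inhibition of agonist-induced arrestin redistribution.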 The format is functional. For orientation: Activated receptors often draw arrestin, which recruitment assays turn into a signal.
Assay [2] can be described thus: inhibitors of firefly luciferase expression or activity, dose response, H4 neuroglioma cells, luminescence (AID 1990). The format is functional, cell-based.
The target of assay [3] is T1, G-protein coupled receptor 35. Put plainly: SAR Analysis for the identification of Selective Antagonists of ERK1/2 Activity in GPR35-Overexpressing U2OS Cells. [Related pubchem assays: 2079, 2058 ]. The format is functional, cell-based.
Assay [4] in a line: Luminescence Cell-Based Dose Response HTS to Identify Inhibitors of 5'UTR Stem-Loop Driven Prion Protein mRNA Translation in H4 Neuroglioblastoma Cells. [Related pubchem assays: 1827 (Project Summary), 1813 (Primary HTS)]. The format is functional.
Assay [5] can be described thus: inhibitors of SNCA 5'UTR-driven reporter translation, confirmation, H4 neuroglioma cells, luminescence (AID 1988). The format is functional, cell-based.
Assay [6] addresses Tyrosine-protein phosphatase non-receptor type 12 (Homo sapiens, UniProt Q05209). Put plainly: SAR Selectivity Analysis of small molecule inhibitors of PEST using pCAP in a fluorescence assay. [Related pubchem assays (depositor defined):AID1779, AID1784, AID2135]. The format is functional.
Assay [7] concerns the target T2, Tyrosine-protein phosphatase non-receptor type 22 (Homo sapiens, UniProt Q9Y2R2).
T2 sequence (Q9Y2R2 whole entry): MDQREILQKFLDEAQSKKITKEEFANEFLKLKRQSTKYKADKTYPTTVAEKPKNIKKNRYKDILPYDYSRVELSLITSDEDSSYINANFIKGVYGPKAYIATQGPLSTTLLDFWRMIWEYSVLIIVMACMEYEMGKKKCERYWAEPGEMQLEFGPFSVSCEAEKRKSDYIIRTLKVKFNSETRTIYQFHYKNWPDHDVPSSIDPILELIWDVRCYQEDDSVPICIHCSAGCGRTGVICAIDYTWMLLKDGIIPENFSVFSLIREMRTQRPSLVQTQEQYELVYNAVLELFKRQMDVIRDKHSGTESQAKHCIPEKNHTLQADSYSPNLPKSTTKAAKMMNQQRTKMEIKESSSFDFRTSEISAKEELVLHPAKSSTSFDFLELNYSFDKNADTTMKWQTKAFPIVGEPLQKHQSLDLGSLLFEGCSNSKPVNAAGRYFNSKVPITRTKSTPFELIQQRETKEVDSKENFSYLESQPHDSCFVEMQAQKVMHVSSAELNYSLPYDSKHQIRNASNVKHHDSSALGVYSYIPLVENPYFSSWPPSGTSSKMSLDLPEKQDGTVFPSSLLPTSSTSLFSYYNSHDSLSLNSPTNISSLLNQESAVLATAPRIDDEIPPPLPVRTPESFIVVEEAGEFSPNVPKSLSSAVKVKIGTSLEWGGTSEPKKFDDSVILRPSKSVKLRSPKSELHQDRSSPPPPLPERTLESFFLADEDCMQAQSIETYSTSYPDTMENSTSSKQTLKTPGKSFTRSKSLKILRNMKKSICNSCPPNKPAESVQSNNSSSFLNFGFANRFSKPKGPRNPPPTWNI
Briefly: SAR LYP1 Fluorescent Assay using OMFP substrate for In Vitro dose response studies - Set 3. [Related pubchem assays (depositor defined):AID1779, AID1784, AID2140, AID2686]. The format is functional.

For assay [8], the target named is T3, Tyrosine-protein phosphatase non-receptor type 7 (Homo sapiens, UniProt P35236).
T3 sequence (P35236 whole entry): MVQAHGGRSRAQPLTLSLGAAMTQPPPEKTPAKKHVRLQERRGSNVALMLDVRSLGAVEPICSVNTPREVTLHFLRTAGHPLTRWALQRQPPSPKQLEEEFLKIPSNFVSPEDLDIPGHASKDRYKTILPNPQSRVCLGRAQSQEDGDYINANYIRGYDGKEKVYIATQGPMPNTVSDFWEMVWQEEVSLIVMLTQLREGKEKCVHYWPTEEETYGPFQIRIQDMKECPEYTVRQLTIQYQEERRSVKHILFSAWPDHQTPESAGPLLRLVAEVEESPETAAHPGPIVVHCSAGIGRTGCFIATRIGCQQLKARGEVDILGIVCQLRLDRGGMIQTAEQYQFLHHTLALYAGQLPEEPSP
Put plainly: HePTP (PTPN7) phosphatase inhibitor potency, SAR follow-up, biochemical, set 2 (AID 449736). The format is functional.

Assay [9] concerns the target T2, Tyrosine-protein phosphatase non-receptor type 22. Briefly: LYP (PTPN22) phosphatase inhibitor potency, SAR follow-up, biochemical, pCAP fluorogenic substrate, fluorescence, set 3 (AID 449727). The format is functional.
In assay [10] the target is G-protein coupled receptor 55 (Homo sapiens, UniProt Q9Y2T6). Put plainly: GPR55 antagonists, SAR follow-up, counter-screen for GPR35 antagonist project, imaging, image-based (AID 2397). The format is functional. (In general: The purpose of a counterscreen is to sort out artefacts and off-target activity.)
For assay [11], the target named is Sphingosine 1-phosphate receptor 2 (Homo sapiens, UniProt O95136). Briefly: Dose Response Cell Based Assay for Antagonists of the S1P2 Receptor. [Related pubchem assays: 856, 736 ]. The format is functional.
Assay [12] has as its target Bcl-2-like protein 10 (Homo sapiens, UniProt Q9HD36). Put plainly: displacers of TR3 peptide from Bcl-B, primary screen, selectivity assay for Bfl-1 inhibitor project, biochemical, fluorescence polarization, FITC-TR3 peptide (AID 748). (Polarisation of emitted light reports the rotation of a fluorescent probe.);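 note: fluorescence polarization from a fluorescein-labelled TR3 peptide binding purified Bcl-B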
For assay [13], the system named is Streptococcus sp. 'group A'. Put plainly: growth inhibition of control SK(-) GAS strain, dose response, counter-screen for streptokinase expression inhibitor project, luminescence, kanamycin, BacTiterGlo, confirmation (AID 1900). The format is functional, organism-based.
The subject of assay [14] is BJ. Briefly: cytotoxicity toward BJ-TERT fibroblasts, dose response, cell-based, RAS-independent, luminescence (AID 1933). The following applies: Homo sapiens. The format is functional.
In assay [15] the target is T4, Streptokinase A (Streptococcus pyogenes serotype M1, UniProt P10520).
T4 sequence (P10520 whole entry): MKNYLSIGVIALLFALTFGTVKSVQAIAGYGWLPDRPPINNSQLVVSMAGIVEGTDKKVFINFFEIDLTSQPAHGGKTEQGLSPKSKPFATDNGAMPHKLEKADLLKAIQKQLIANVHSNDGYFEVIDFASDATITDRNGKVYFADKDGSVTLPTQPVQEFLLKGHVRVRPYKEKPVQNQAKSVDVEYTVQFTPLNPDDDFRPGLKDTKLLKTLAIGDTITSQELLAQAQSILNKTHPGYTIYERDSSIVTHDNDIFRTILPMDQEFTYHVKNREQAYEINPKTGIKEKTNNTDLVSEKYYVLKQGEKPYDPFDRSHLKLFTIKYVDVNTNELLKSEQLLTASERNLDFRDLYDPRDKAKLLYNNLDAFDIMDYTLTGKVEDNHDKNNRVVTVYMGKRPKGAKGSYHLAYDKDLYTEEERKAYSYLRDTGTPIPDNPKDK
Put plainly: S. pyogenes streptokinase expression inhibitors, potency, dose response, plasminogen activation absorbance, OD405 (AID 1914).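 Note: secreted streptokinase activity via plasminogen activation per viability signal from cell pellet.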 The format is functional, Streptococcus pyogenes M1 GAS.

For assay [16], the system named is BJ. Briefly: cells. The format is functional, cell-based. The following applies: Homo sapiens.
Assay [17] concerns BJ. Briefly: cytotoxicity toward BJ-TERT-LT-ST fibroblasts, dose response, cell-based, RAS-independent, luminescence (AID 1935).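 Note: BJ fibroblasts immortalized with TERT plus LT and ST oncogenes.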 The format is functional. The following applies: Homo sapiens.
A short description of assay [18]: cytotoxicity toward DRD oncogenic fibroblasts, dose response, cell-based, non-viral oncogenic, luminescence (AID 1934). The format is functional. As to conditions: Homo sapiens.
The subject of assay [19] is Streptococcus. Briefly: Group A Streptococcus viability loss, dose response, counter-screen for streptokinase expression inhibitor project, luminescence, BacTiterGlo (AID 1915).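 Note: potency for reduction of bacterial viability or growth.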 The format is functional, organism-based.
In assay [20] the target is Exodeoxyribonuclease V (Escherichia coli (strain K12), UniProt P04993+P07648+P08394). Briefly: E. coli RecBCD inhibitors, dose response, counter-screen for AddAB inhibitor project, absorbance, V66 E. coli, mutant T4 phage (AID 492957). The format is functional, cell-based, Escherichia coli str. K-12 substr. MG1655.
Assay [21] can be described thus: Counterscreen for AddAB inhibitors: absorbance-based bacterial cell-based high throughput dose response assay for inhibitors of bacterial viability. [Related pubchem assays (depositor defined):AID435030, AID449728, AID449731, AID488942, AID488955, AID488956]. The format is functional.
The target of assay [22] is Cytochrome P450 2C19 (Homo sapiens, UniProt P33261). Briefly: Cytochrome panel assay with activity outcomes. Panel member name: p450-cyp2c19 Compounds with AC50 equal or less than 10 uM are considered active. The format is functional. The following applies: read-out: AC50.
Assay [23] relates to INS1. Briefly: beta cell apoptosis inhibitors, cytokine rescue, dose response, luminescence, retest (AID 449756).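 Note: cell death triggered by IL-1 beta plus TNF-alpha plus IFN-gamma mixture; protective hits raise ATP signal compared with cytokine alone wells.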 As to conditions: Rattus norvegicus. The format is functional, cell-based.
The target of assay [24] is T5, Cytochrome P450 1A2 (Homo sapiens, UniProt P05177).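 Note: PubChem cytochrome P450 panel assay, CYP1A2 panel member.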
T5 sequence (P05177 whole entry): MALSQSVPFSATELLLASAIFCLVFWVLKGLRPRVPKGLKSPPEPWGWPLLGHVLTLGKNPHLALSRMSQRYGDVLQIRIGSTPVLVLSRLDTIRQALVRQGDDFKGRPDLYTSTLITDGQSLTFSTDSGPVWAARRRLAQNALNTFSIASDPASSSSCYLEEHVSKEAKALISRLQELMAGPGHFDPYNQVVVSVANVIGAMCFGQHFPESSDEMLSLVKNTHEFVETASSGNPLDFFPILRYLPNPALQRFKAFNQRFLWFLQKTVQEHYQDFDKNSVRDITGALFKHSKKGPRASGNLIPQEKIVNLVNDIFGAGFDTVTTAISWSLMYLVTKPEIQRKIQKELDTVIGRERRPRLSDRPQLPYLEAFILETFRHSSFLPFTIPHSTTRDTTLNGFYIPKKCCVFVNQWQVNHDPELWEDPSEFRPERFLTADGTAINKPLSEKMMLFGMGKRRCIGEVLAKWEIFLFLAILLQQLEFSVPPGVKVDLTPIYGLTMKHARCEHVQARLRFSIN

Assay [25] deals with Cytochrome P450 3A4 (Homo sapiens, UniProt P08684).
Chain of Cytochrome P450 3A4 (P08684 whole entry): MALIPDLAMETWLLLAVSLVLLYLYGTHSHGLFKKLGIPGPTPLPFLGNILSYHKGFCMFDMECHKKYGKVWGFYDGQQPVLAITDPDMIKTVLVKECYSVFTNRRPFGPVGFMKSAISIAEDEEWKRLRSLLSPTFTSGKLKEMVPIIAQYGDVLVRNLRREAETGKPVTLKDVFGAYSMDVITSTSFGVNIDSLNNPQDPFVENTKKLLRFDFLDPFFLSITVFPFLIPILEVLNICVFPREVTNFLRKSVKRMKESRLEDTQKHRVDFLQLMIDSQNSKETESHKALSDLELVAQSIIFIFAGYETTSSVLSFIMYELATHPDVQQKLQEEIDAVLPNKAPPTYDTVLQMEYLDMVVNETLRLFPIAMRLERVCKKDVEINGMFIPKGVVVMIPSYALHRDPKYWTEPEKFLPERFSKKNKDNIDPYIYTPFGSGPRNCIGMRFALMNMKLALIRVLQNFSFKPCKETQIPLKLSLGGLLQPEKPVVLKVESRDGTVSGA

T1 sequence (Q9HC97 whole entry): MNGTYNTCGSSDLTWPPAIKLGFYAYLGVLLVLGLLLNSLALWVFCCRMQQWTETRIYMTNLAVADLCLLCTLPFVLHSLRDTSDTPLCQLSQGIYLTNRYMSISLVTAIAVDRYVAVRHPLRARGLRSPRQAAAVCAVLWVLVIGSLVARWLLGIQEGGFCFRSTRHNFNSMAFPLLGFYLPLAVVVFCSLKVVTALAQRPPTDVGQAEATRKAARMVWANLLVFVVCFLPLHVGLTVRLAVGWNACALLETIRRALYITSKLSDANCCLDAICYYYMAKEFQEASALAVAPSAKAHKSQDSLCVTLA
Chain of Sphingosine 1-phosphate receptor 2 (O95136 whole entry): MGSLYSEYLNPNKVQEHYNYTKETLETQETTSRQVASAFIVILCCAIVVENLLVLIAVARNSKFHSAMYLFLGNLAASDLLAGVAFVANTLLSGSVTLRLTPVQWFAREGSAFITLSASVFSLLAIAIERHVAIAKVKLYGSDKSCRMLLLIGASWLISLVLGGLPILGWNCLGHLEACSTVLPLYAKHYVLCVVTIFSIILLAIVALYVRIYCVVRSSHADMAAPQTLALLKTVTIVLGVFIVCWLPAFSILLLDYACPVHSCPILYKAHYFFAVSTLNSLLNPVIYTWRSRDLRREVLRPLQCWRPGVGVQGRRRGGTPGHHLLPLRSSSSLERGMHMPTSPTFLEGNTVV
Chain of G-protein coupled receptor 55 (Q9Y2T6 whole entry): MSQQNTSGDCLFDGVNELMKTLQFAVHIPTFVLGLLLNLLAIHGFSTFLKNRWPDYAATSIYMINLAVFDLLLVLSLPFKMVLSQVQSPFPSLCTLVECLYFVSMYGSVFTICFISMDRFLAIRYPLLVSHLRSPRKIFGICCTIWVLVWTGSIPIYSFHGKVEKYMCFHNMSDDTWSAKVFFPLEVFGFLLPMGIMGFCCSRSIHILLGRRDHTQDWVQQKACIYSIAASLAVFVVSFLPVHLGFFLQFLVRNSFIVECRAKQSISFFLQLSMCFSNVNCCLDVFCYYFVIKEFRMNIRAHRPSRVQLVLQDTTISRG
Chain of Exodeoxyribonuclease V (P04993 whole entry): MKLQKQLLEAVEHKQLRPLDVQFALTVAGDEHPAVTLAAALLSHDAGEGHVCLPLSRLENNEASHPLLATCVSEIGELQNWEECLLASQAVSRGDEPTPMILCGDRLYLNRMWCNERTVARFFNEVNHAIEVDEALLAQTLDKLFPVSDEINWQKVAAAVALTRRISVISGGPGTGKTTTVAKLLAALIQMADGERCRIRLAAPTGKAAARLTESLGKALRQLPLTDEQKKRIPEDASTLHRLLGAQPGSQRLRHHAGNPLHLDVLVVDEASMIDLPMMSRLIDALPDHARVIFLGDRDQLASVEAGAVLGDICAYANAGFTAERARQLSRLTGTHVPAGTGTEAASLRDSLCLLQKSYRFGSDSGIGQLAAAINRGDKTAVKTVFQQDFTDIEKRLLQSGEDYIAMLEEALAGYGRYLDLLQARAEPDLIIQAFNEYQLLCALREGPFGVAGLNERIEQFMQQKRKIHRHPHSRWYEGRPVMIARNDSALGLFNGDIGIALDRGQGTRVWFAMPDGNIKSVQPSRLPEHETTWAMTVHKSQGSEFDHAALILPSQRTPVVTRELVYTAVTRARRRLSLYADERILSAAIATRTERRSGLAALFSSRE
Chain of Exodeoxyribonuclease V (P07648 whole entry): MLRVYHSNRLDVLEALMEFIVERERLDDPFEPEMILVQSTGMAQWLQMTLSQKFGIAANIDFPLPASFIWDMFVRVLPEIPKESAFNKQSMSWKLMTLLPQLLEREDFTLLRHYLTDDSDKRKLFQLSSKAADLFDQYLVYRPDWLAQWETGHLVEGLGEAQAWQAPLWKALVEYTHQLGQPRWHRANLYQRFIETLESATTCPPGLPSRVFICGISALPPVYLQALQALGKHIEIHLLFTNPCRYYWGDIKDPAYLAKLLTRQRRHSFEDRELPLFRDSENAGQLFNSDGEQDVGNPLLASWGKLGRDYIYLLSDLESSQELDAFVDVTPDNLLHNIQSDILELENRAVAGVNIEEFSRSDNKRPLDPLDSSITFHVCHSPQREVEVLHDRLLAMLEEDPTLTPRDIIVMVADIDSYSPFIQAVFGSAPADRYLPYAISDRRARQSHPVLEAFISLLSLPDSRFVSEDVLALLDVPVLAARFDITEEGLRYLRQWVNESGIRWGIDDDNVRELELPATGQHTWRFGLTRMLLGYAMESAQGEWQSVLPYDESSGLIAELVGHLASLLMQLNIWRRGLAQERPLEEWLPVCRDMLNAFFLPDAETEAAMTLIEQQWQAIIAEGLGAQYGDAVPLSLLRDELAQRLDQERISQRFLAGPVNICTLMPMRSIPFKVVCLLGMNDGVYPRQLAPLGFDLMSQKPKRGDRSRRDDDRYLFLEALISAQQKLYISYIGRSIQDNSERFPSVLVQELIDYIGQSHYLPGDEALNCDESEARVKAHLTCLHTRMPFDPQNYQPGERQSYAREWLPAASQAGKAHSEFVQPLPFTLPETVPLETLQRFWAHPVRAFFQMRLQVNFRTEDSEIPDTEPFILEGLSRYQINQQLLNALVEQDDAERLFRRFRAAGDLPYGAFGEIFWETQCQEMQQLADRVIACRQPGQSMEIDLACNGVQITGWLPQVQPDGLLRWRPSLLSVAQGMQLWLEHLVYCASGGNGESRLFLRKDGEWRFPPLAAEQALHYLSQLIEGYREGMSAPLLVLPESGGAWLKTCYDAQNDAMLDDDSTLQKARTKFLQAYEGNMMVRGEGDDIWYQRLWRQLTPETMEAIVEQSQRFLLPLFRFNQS
Chain of Exodeoxyribonuclease V (P08394 whole entry): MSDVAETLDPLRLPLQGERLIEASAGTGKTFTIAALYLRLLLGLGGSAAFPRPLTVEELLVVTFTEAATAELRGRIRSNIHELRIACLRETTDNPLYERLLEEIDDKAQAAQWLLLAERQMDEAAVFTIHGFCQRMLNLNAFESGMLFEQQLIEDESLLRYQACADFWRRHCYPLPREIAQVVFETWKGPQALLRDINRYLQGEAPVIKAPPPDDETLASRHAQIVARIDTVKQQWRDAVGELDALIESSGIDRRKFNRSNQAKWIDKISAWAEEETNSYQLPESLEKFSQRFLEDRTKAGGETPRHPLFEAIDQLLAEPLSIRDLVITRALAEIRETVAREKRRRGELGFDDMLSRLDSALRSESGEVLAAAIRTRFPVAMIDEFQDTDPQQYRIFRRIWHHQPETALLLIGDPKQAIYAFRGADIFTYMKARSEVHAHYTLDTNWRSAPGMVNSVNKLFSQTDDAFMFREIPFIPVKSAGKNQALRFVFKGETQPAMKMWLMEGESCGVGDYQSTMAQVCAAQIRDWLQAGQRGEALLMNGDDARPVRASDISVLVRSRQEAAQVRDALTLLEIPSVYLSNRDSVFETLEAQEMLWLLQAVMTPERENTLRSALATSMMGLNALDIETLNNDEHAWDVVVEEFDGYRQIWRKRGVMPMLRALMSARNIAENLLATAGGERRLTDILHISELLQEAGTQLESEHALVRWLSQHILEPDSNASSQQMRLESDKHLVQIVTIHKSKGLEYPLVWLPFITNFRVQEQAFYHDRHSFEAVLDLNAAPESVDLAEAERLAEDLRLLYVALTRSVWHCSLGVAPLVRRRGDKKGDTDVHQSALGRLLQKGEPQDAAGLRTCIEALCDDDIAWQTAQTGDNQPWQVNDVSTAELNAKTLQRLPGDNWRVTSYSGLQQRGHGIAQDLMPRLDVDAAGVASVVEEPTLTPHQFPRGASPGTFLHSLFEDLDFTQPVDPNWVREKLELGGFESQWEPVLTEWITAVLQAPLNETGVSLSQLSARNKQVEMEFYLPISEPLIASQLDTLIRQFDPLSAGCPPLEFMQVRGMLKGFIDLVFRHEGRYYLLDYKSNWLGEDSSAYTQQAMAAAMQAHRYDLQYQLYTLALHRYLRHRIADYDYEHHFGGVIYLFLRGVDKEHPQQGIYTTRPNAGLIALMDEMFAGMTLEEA
Chain of Bcl-2-like protein 10 (Q9HD36 whole entry): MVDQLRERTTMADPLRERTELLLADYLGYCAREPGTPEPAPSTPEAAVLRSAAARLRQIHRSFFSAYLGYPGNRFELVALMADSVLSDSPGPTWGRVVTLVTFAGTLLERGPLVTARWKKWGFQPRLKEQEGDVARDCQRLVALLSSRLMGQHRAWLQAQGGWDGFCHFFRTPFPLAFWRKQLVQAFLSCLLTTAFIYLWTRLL

With `O=C(CCCN1C(=O)/C(=C/c2ccc3c(c2)OCO3)SC1=S)Nc1cccc(C(=O)O)c1`, the IC50 (commonly the midpoint of a concentration-inhibition curve) in [1] was 0.803 µM (active); in assay [3] it was 1.89 µM (active); in assay [6], 37.4 µM (active); in assay [7] it was > 100 µM (inactive); in assay [8], 2.47 µM (active); in assay [9], 62.7 µM (active). Further, the IC50 in assay [10] is > 32 µM (inactive). Also, the concentration for a half-maximal effect (EC50) (usually the concentration needed to bring the measured effect to its halfway point) in assay [2] was 10.2 µM (active); in assay [4], 17.5 µM (active); in assay [5], > 120 µM (not active).
Consider `Cc1ccc(-[n+]2c(-c3ccc(Br)cc3)cn3c2CCc2ccc4cccnc4c2-3)cc1`, for which the IC50 in assay [11] is 4.28 µM (active); in [12], 41.4 µM (active); in assay [20] it was 28.4 µM (inactive); in [21], 16.9 µM (inactive). Also, the half-maximal effective concentration (EC50) in assay [13] is 6.51 µM (active); in assay [14], 0.649 µM (inconclusive); in [15], 6.5 µM (active); in [16], 1.69 µM (inconclusive); in [17], 2.98 µM (inconclusive); in [18], 3.51 µM (active). Besides, the EC50 in assay [19] is recorded as > 50 µM (not active). The half-maximal activity concentration (AC50) (usually the midpoint of the concentration-response curve, whichever way the signal moves) in assay [22] is 28.2 µM (inconclusive); in assay [23] it was 0.412 µM (active); in assay [24] it was 25.1 µM (inconclusive); in assay [25], 4.47 µM (inconclusive).
